Measured values published in patent publication US11357873B2, “Chiral cyclen compounds and their uses” (THE HONG KONG POLYTECHNIC UNIVERSITY, priority 2016, dated 2022).
Read-outs that look alike come from different tables or passages of the source. Values belong to the molecule of their own block, whether it stands above or below them.

What was measured:
[1] = amine bond, 12-membered ring
[2] = TSA/SA isomer ratio of lanthanide complexes by 1H NMR; type: physicochemical; conditions: 25° C., 400 MHz, pD 7.0, aqueous solution
Text: (§1) In aqueous solution, the ratio of TSA/SA isomers of Eu(III) and Yb(III) complexes in DOTA-like systems can be easily determined by ^1H NMR as two well-defined sets of six resonances are observed for the diastereotopic protons in CH2CO and NCH2CH2N.^13 Although the Gd(III) complexes cannot be analyzed by NMR, their ratio of isomers are expected to be similar to those of the Eu(III) and Yb(III) complexes because the ionic radius of Gd(III) is similar to the ionic radius of Eu(III) and Yb(III).
(§2) The conformational properties of the lanthanide complexes were investigated by both HPLC and NMR spectroscopy. The ^1H NMR spectra of the four europium chiral DOTA-based complexes are compared in FIG. 3. […] In the cases of [EuL3]^− and [EuL4]^−, the twisted antiprismatic isomers were more dominant, with the ratio of 6.52 for [EuL3]^− and 13.50 for [EuL4]^− observed.
The ratio of TSA/SA isomers for [YbL1]^− (0.28) and [YbL2]^− (0.93) was relatively lower than that of the europium analogues. The ratio change from [YbL2]^− to [YbL3]^− was also not as apparent.

[3] = Stability of isomers on heating and storage by 1H NMR; type: physicochemical; conditions: for isomer ratio after heating (lack of racemization): solution of [EuL2A]− and [EuL2B]− at 1:0.25, 90° C. for 3 days
Text: as §1, §2
The stability of the complexes toward racemization over time was also monitored by ^1H NMR (FIG. 20). […] Nevertheless, the original set of peaks existed predominately when the pD was adjusted from 6.0 to 7.5 and further heated for 12 h at 90° C. It can be observed that while the purity of the ligands may not be highly satisfactory, pure complexes could be obtained by HPLC separation after complexation. This phenomenon indicates the purification of DOTA-based ligands should be handled with care.

[4] = Absorption and photoluminescence (quantum yield, lifetime, q); type: physicochemical; parameters: λabs(max): unit not given here
Method: (§3) Absorption spectra of complexes were measured with HP UV-8453 spectrophotometer. Steady-state room temperature photoluminescence measurements were performed with an Edinburgh Instrument FLSP920 spectrophotometer equipped with a Xe900 continuous xenon lamp, μF920 microsecond flash lamp and a single photon counting photomultiplier tube. Spectra were corrected with the bundled F900 software. Solution-state measurements were conducted using quartz curettes of 10 mm path length. CPL measurements were conducted on a custom built spectrometer^63 (in Durham University) consisting of a laser driven light source (Energetiq EQ-99 LDLS, spectral range 170 to 2100 nm) coupled to an Acton SP2150 monochromator (600 g/nm, 300 nm Blaze) that allows excitation wavelengths to be selected with a 6 nm FWHM band-pass. The collection of the emitted light was facilitated (90° angle set up, 1 cm path length quartz curette) by a Lock-In Amplifier (Hinds Instruments Signaloc 2100) and Photoelastic Modulator (Hinds Instruments PEM-90). The differentiated light was focused onto an Acton SP2150 monochromator (1200 g/nm, 500 nm Blaze) equipped with a high sensitivity cooled Photo Multiplier Tube (H10723-20 Extended red-multialkali PMT based photosensor (5V)). Spectra were recorded using a 5 spectral average sequence in the range of 570-720 nm with 0.5 nm spectral intervals and 500 μs integration time. The recorded CPL spectrum underwent a 25% Fourier transformation smoothening protocol using Origin 8.0 Software (Origin Labs) to enhance appearance (all calculations were carried out using raw spectral data).
The shift in absorption is caused by electronic communication between the electropositive lanthanide center and the chromophore. […] These are not observed for 11, however, as we believe the steric effect of the planar phenyl ring of the benzyl group could not be alleviated by appropriate rotation, whereas that of the isobutyl group could.
The luminescence quantum yields of the complexes are decent in water and HEPES solution, although they are much higher in DMSO, due to the nonradiative quenching by O—H oscillators of water molecules in the second coordination sphere (Table 6). The intrinsic quantum yields^61—a calculated value evaluating the quantum yield of Eu(III) via direct metal excitation—of the complexes are calculated, and, as expected, the values are very similar, except for 10. The higher value corroborates with the shift in absorption maximum, for which we believe the reason is due to a shorter europium—chromophore distance and better interaction. On the other hand, the sensitization efficiencies of the complexes vary. […] The relatively remarkable ηsens of 13 is attributed to its structural rigidity, as both the tetraaza backbone and the acetate arms are modified with a chrial substituent, i.e., double chirality. The double chirality is also attributed for the increase in luminescence quantum yield compared to that of 12a/12b.

[5] = Circularly polarized luminescence (CPL), dissymmetry factor glum; type: physicochemical; conditions: wavelength in parentheses in the cell
Method: as §3, with “Steady-state” for “Absorption spectra of complexes were measured with HP UV-8453 spectrophotometer. Steady-state”, “time.” for “time. The recorded CPL spectrum underwent a 25% Fourier transformation smoothening protocol using Origin 8.0 Software (Origin Labs) to enhance appearance (all calculations were carried out using raw spectral data).”

SMILES: CC[C@H]1CN(Cc2ccccc2)[C@@H](CC)CN(Cc2ccccc2)[C@@H](CC)CN(Cc2ccccc2)[C@@H](CC)CN1Cc1ccccc1
ring closure, isolated yield [1]: 27.5%

SMILES: CC(C)(C)OC(=O)NCCCC[C@H]1CN(Cc2ccccc2)[C@@H](CCCCNC(=O)OC(C)(C)C)CN(Cc2ccccc2)[C@@H](CCCCNC(=O)OC(C)(C)C)CN(Cc2ccccc2)[C@@H](CCCCNC(=O)OC(C)(C)C)CN1Cc1ccccc1
ring closure, isolated yield ([1]; from CC(C)(C)OC(=O)NCCCCC1C[N@@]1Cc1ccccc1, TsOH.H2O, MeCN, 82.1 mM, 25.0 °C): 24.5%

SMILES: c1ccc(C[C@H]2CN(Cc3ccccc3)[C@@H](Cc3ccccc3)CN(Cc3ccccc3)[C@@H](Cc3ccccc3)CN(Cc3ccccc3)[C@@H](Cc3ccccc3)CN2Cc2ccccc2)cc1
ring closure, isolated yield [1]: 25%

SMILES: CC[C@H]1CN(CC(=O)[O-])[C@@H](CC)CN(CC(=O)[O-])[C@@H](CC)CN(CC(=O)[O-])[C@@H](CC)CN1CC(=O)[O-].[Yb+3] [[YbL2]^−]
isomer ratio of TSA/SA [2]: 0.93

SMILES: CC[C@H]1CN(CC(=O)[O-])[C@@H](CC)CN(CC(=O)[O-])[C@@H](CC)CN(CC(=O)[O-])[C@@H](CC)CN1CC(=O)[O-].[Eu+3] (single isomer, unassigned) [[EuL2A]^−]
isomer ratio after heating (lack of racemization) [3]: remained at the same ratio

SMILES: O=[N+]([O-])c1ccc(C[C@H]2CN(Cc3ccccc3)[C@@H](Cc3ccc([N+](=O)[O-])cc3)CN(Cc3ccccc3)[C@@H](Cc3ccc([N+](=O)[O-])cc3)CN(Cc3ccccc3)[C@@H](Cc3ccc([N+](=O)[O-])cc3)CN2Cc2ccccc2)cc1
ring closure, isolated yield ([1]; from O=[N+]([O-])c1ccc(CC2C[N@@]2Cc2ccccc2)cc1, TsOH.H2O, MeCN, 84.7 mM, 25.0 °C): 20.6%

SMILES: CC(C)C[C@H]1CN(Cc2ccccc2)[C@@H](CC(C)C)CN(Cc2ccccc2)[C@@H](CC(C)C)CN(Cc2ccccc2)[C@@H](CC(C)C)CN1Cc1ccccc1
ring closure, isolated yield [1]: 28.3%

SMILES: CC[C@@H]1CN(CC(=O)[O-])[C@H](CC)CN(Cc2cc(C#Cc3c(OC)cc(OC)cc3OC)cc(P(C)(=O)[O-])n2)[C@H](CC)CN(CC(=O)[O-])[C@H](CC)CN1CC(=O)[O-].[Eu+3] [Complex 9]
R, I(5D0 → 7F2)/I(5D0 → 7F1) ([4]; asymmetry ratio, room temperature, 10 in MeOH, 11 in DMSO): 2.44
q (Parker's) ([4]; from lifetimes in H2O and D2O, first value of cell): 0.02
q (Horrocks') ([4]; from lifetimes in H2O and D2O, second value of cell): 0.05
ΦEuEu (%) ([4]; intrinsic quantum yield, calculated value): 28.1%
τD2O/MeOD ([4]; luminescence lifetime, 5D0 → 7F2 transition, D2O (MeOD for 10)): 1.77 ms
τH2O/MeOH ([4]; luminescence lifetime, 5D0 → 7F2 transition, H2O (MeOH for 10)): 1.20 ms
ΦDMSO (%) ([4]; luminescence quantum yield in DMSO): 53.0%
ΦH2O/MeOH (%) ([4]; luminescence quantum yield relative to quinine sulfate in 0.1M H2SO4, H2O (MeOH for 10, insoluble in H2O)): 14.9%
ΦHEPES (%) ([4]; luminescence quantum yield, 0.1M HEPES buffer, pH 7.4): 14.3%
λabs(max) ([4]; room temperature, 10 measured in MeOH, 11 in DMSO): 356
ηsens (%) ([4]; sensitization efficiency, calculated according to ref 61): 53.0%
glum ΔJ = 1 (λ) DMSO ([5]; DMSO): +0.17 (591)
glum ΔJ = 3 (λ) DMSO ([5]; DMSO): +0.13 (657)
glum ΔJ = 1 (λ) H2O ([5]; H2O): +0.12 (591)
glum ΔJ = 3 (λ) H2O ([5]; H2O): +0.21 (653)
1H NMR spectrum after storage (stability toward racemization) ([3]; 9 months at room temperature, pD 6.0, D2O): consistent after 9 months of storage
1H NMR spectrum upon heating (stability toward racemization) ([3]; heating at 90° C.): a new set of peaks appeared

Second part, the molecule after the results:

isomer ratio of TSA/SA [2]: 0.28
SMILES: C[C@H]1CN(CC(=O)[O-])[C@@H](C)CN(CC(=O)[O-])[C@@H](C)CN(CC(=O)[O-])[C@@H](C)CN1CC(=O)[O-].[Yb+3] [[YbL1]^−]

isomer ratio of TSA/SA [2]: 1.27
SMILES: CC[C@H]1CN(CC(=O)[O-])[C@@H](CC)CN(CC(=O)[O-])[C@@H](CC)CN(CC(=O)[O-])[C@@H](CC)CN1CC(=O)[O-].[Eu+3] [[EuL2]^−]

isomer ratio of TSA/SA [2]: 6.52
SMILES: CC(C)C[C@H]1CN(CC(=O)[O-])[C@@H](CC(C)C)CN(CC(=O)[O-])[C@@H](CC(C)C)CN(CC(=O)[O-])[C@@H](CC(C)C)CN1CC(=O)[O-].[Eu+3] [[EuL3]^−]

isomer ratio of TSA/SA [2]: 0.75
SMILES: C[C@H]1CN(CC(=O)[O-])[C@@H](C)CN(CC(=O)[O-])[C@@H](C)CN(CC(=O)[O-])[C@@H](C)CN1CC(=O)[O-].[Eu+3] [[EuL1]^−]

isomer ratio after heating (lack of racemization) [3]: remained at the same ratio
SMILES: CC[C@H]1CN(CC(=O)[O-])[C@@H](CC)CN(CC(=O)[O-])[C@@H](CC)CN(CC(=O)[O-])[C@@H](CC)CN1CC(=O)[O-].[Eu+3] (single isomer, unassigned) [[EuL2B]^−]

isomer ratio of TSA/SA [2]: essentially one TSA isomer
SMILES: O=C([O-])CN1CC(Cc2ccccc2)N(CC(=O)[O-])CC(Cc2ccccc2)N(CC(=O)[O-])CC(Cc2ccccc2)N(CC(=O)[O-])CC1Cc1ccccc1.[Yb+3] (stereo not shown) [[YbL4]^−]

isomer ratio of TSA/SA [2]: 13.50
SMILES: O=C([O-])CN1CC(Cc2ccccc2)N(CC(=O)[O-])CC(Cc2ccccc2)N(CC(=O)[O-])CC(Cc2ccccc2)N(CC(=O)[O-])CC1Cc1ccccc1.[Eu+3] (stereo not shown) [[EuL4]^−]
